Read-outs that look alike come from different tables or passages of the source.
Columns and labels:
E. coli RNA polymerase = target: T1, E. coli RNA polymerase (Escherichia coli, UniProt P0A8T7+P0A8V2); experiment: Inhibition of RNA polymerase, cell free transcription assay (3H-UTP incorporation); format: biochemical; conditions: 37° C., 15 minutes
T1 construct: purchased Epicentre Technology; Madison Wis
Method: The inhibition of RNA polymerase was determined in a cell free transcription assay performed in standard U-bottom 96-well plates. The [H^3]-UTP incorporation in RNA was measured in the material precipitated upon addition of trichloroacetic acid (TCA). The reaction mixture contained 50 mM Tris-HCl (pH8), 50 mM KCl, 10 mM MgCl2, 0.1 mM EDTA, 5 mM dithiothreitol (DTT), 10 μg/ml BSA, 20: g/ml calf thymus DNA, 1 mM ATP, 1 mM CTP, 1 mM GTP, 0.5 mCi ^3H-UTP and 0.5 U of E. coli RNA polymerase enzyme (Epicentre Technology; Madison Wis.). 5 μl of the tested solution were added to 45 μl of reaction mixture, incubated at 37° C. for 15 minutes and then quenched with 150 μl of ice-cold 10% (w/v) TCA. After 30 min in ice, the well content was collected on glass-fiber filters (Filtermat A, Wallac) using a 96 wells cell harvester (Wallac) and radioactivity was determined in a β-Plate scintillation counter (Wallac). Count per min (CPM) values are transformed in % of RNA polymerase inhibition by using the following formula:
% of RNA polymerase=100−[(CPM compound−CPM blank)/(CPM control−CPM blank)]*100
where: CPM compound is CPM in well with compound; CPM blank is CPM average in wells without enzyme template and CPM control is CPM average in wells without compound.

M. catarrhalis = experiment: Activity of concentrated HPLC fractions of the complex against M. catarrhalis; format: cell-based, Moraxella catarrhalis; conditions: eluates of HPLC fractionation of the complex, concentrated under vacuum
[1] = Conversion of factors A2 and B2 into A1 and B1 in DMSO (NMR); format: physicochemical; conditions: room temperature
From the text: The GE23077 complex is constituted of two couples of isomers: factors A1, A2 and factors B1, B2. It was observed that the individual pure Factor A1 and Factor A2, when kept in water solution or in mixtures of water miscible solvents and water solutions, reach an equilibrium state between them. […] The equilibration rate was accelerated at acidic and basic pHs. […] Accordingly, if recorded after complete conversion, the spectra relating to factors A2 and B2 correspond to the ones of the factors A1 and B1, respectively.

T1 sequence (P0A8V2 whole entry): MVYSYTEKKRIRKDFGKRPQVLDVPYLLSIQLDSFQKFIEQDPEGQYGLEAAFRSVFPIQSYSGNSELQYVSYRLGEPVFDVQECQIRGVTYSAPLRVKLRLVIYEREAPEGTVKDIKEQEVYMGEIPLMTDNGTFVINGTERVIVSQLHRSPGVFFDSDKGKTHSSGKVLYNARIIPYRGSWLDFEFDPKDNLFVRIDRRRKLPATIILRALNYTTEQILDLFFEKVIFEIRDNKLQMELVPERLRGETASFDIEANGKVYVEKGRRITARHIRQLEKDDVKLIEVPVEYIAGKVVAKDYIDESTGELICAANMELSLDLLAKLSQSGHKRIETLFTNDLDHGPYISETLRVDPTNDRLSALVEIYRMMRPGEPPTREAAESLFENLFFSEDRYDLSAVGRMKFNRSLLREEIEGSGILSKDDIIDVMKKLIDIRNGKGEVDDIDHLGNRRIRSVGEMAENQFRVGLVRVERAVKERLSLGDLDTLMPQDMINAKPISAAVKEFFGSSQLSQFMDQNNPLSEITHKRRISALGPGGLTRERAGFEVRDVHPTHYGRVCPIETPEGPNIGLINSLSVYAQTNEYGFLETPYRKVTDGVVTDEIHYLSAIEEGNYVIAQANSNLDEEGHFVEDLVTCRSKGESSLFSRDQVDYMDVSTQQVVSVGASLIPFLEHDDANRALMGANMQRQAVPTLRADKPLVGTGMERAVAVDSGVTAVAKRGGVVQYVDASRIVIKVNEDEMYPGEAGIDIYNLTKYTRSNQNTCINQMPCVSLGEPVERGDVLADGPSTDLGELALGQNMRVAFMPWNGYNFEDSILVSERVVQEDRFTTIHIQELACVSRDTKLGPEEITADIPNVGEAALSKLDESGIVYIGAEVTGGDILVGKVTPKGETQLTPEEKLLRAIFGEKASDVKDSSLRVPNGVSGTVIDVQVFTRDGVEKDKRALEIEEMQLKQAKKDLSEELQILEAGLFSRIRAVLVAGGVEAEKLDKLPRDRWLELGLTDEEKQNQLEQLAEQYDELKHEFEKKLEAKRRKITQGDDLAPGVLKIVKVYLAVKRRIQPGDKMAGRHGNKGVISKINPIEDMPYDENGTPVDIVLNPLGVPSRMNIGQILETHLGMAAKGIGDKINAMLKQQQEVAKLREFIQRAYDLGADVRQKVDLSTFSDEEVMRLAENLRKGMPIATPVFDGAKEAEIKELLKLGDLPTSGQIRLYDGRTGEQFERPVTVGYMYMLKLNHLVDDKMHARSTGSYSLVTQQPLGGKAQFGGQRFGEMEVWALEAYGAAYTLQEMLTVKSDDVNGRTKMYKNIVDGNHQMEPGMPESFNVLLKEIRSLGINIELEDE
T1 sequence (P0A8T7 whole entry): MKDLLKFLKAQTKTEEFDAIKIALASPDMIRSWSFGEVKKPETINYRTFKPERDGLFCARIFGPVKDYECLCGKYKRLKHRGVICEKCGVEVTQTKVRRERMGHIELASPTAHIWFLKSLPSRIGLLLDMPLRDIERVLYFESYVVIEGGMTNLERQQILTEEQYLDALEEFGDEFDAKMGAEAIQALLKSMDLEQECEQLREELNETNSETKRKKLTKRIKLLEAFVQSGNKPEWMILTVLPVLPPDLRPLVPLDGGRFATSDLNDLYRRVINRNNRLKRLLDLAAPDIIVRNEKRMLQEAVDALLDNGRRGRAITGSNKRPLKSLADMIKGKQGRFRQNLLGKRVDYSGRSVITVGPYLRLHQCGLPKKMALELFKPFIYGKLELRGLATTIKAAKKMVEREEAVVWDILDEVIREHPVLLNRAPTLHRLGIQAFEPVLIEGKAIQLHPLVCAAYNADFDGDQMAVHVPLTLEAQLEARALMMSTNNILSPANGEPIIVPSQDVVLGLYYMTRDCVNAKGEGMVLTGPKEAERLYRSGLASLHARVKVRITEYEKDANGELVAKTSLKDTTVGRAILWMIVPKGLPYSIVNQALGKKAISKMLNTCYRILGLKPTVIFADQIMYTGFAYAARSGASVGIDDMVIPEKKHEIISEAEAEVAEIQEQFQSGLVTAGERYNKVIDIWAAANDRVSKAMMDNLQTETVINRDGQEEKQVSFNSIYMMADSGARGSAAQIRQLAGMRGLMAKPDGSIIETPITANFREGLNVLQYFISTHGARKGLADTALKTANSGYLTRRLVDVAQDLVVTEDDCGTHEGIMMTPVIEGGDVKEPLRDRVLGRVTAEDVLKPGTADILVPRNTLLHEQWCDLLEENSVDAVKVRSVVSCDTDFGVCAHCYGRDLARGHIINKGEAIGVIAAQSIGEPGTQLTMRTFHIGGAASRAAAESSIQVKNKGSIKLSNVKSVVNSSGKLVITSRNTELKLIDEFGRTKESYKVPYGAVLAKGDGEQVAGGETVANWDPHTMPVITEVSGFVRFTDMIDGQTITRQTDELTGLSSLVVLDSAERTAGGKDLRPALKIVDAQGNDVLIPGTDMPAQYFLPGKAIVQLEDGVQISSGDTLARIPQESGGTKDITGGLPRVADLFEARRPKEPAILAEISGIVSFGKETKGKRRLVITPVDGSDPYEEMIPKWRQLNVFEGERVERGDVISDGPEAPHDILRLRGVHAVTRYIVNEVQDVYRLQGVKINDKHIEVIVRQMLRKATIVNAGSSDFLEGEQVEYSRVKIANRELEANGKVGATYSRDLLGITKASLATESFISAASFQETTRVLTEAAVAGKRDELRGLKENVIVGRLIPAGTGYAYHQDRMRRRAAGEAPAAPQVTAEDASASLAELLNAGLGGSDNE
T1 sequence (P0A7Z4 whole entry partner): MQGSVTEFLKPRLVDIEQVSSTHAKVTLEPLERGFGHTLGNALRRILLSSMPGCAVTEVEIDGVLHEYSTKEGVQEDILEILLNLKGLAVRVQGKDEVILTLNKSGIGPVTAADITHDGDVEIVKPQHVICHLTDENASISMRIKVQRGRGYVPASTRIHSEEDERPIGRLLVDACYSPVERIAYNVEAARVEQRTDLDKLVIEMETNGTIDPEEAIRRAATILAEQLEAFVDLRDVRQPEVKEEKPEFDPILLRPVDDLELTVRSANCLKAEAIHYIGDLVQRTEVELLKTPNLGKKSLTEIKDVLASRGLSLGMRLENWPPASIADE
T1 sequence (P0A800 whole entry partner): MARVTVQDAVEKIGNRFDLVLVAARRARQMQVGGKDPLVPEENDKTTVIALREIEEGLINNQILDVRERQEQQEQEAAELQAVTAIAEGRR

Row | SMILES | IC50 (E. coli RNA polymerase; IC50 of E. coli RNA polymerase) [nM] | Inhibition of M. catarrhalis by HPLC fractions containing the separated factors (M. catarrhalis) | Time for full conversion into factor A1 / B1 [1] [h] | IC50 (E. coli RNA polymerase; read-out: IC50 of E. coli RNA polymerase (converted)) [nM] | Time for full conversion into factor A1 / B1 (in words) [1]
1 | CC=C(C)C(=O)NCC1NC(=O)C(C(=O)O)NC(=O)C(O)CNC(=O)C(C(C)O)NC(=O)C(C(O)C(O)C(N)=O)NC(=O)C(C(C)C)NC(=O)C(CO)NC1=O (single isomer, unassigned) [Factor A1] | 187 | inhibited the test microorganism | – | – | –
2 | CC=C(C)C(=O)NCC1NC(=O)C(C(=O)O)NC(=O)C(O)CNC(=O)C(C(C)O)NC(=O)C(C(O)C(O)C(N)=O)NC(=O)C(C(C)C)NC(=O)C(CO)NC1=O (single isomer, unassigned) [Factor A2] | 43.5 | inhibited the test microorganism | 12 | – | –
3 | CC(C)CC(=O)NCC1NC(=O)C(C(=O)O)NC(=O)C(O)CNC(=O)C(C(C)O)NC(=O)C(C(O)C(O)C(N)=O)NC(=O)C(C(C)C)NC(=O)C(CO)NC1=O (single isomer, unassigned) [Factor B1] | 124 | inhibited the test microorganism | – | – | –
4 | CC(C)CC(=O)NCC1NC(=O)C(C(=O)O)NC(=O)C(O)CNC(=O)C(C(C)O)NC(=O)C(C(O)C(O)C(N)=O)NC(=O)C(C(C)C)NC(=O)C(CO)NC1=O (single isomer, unassigned) [Factor B2] | – | inhibited the test microorganism | – | 24.8 | few minutes

From patent US6586393B2, “Antibiotics GE 23077, pharmaceutically acceptable salts and compositions, and use thereof” (priority 2000, dated 2003)
